Broadly, the GI50 is the concentration at which growth is held to half of that of the control.

Data on four molecules can be found in patent US20070117743A1, “New antitumoral compounds” (priority 2003, published 2007).

The test system of data set [1] is A-549. In words: SRB colorimetric assay of cell growth and viability, A-549. The class given is cell-based, human. The settings on record: 48 hours exposure; for GI50: read-out: GI50 A-549; for CC50: read-out: LC50 A-549. From the text: (§1) The finality of this assay is to interrupt the growth of a “in vitro” tumor cell culture by means a continued exhibition of the cells to the sample to be testing.
(§2) This form of the assay employs 96 well cell culture microplates of 9 mm diameter (Faircloth, 1988; Mosmann, 1983). Most of the cell lines are obtained from American Type Culture Collection (ATCC) derived from different human cancer types.
(§3) Cells are maintained in RPMI 1640 10% FBS, supplemented with 0.1 g/l penicillin and 0.1 g/l streptomycin sulfate and then incubated at 37° C., 5% CO2 and 98% humidity. For the experiments, cells were harvested from subconfluent cultures using trypsin and resuspended in fresh medium before plating.
(§4) Cells are seeded in 96 well microtiter plates, at 5×10^3 cells per well in aliquots of 195 μL medium, and they are allowed to attach to the plate surface by growing in drug free medium for 18 hours. Afterward, samples are added in aliquots of 5 μL in a ranging from 10 to 10^−8 μg/mL, dissolved in DMSO:EtOH:PBS (0.5:0.5:99). After 48 hours exposure, the antitumor effect are measured by the SRB methodology: cells are fixed by adding 50 μL of cold 50% (wt/vol) trichloroacetic acid (TCA) and incubating for 60 minutes at 4° C. Plates are washed with deionized water and dried. One hundred μL of SRB solution (0.4% wt/vol in 1% acetic acid) is added to each microtiter well and incubated for 10 minutes at room temperature. Unbound SRB is removed by washing with 1% acetic acid. Plates are air dried and bound stain is solubilized with Tris buffer. Optical densities are read on a automated spectrophotometric plate reader at a single wavelength of 490 nm.
(§5) The values for mean+/− SD of data from triplicate wells are calculated. Some parameters for cellular responses can be calculated: GI=growth inhibition, TGI=total growth inhibition (cytostatic effect) and LC=cell killing (cytotoxic effect).
(In SRB staining, fixed cells bind dye roughly in proportion to their protein.)

The subject of data set [2] is HT-29. In words: SRB colorimetric assay of cell growth and viability, HT-29. The class given is cell-based, human. The note with it: 48 hours exposure; for GI50: read-out: GI50 HT-29; for CC50: read-out: LC50 HT-29.
Text: as §1, §2, §3, §4, §5

Read-outs that look alike come from different tables or passages of the source. *1 amine or outer side, *2 acyl side, *3 side chain or, on linkers, in order; H or OH if unused. Where a SMILES comes first, the peptide text is derived from it. Bridges are numbered along the chain shown (N, C = ends). [ ]: non-standard residue; d: D form. The star is where a group is joined. X3 = CN(C)C(=NCCC[C@H](N[*:1])C(=O)[*:2])N(C)c1ccccc1; X2 = CN(C)C(=NCCC[C@H](N[*:1])C(=O)[*:2])N1CCCC1; X1 = CN(C)C(=NCCC[C@H](N[*:1])C(=O)[*:2])N(C)C; d(aIle) = CC[C@H](C)[C@@H](N)C(=O)O; d(aThr) = C[C@@H](O)[C@@H](N)C(=O)O; Hexanoyl(5-Me) = CC(C)CCCC(=O)*; Dhb = C/C=C(\N)C(=O)O

`C/C=C1\NC(=O)[C@H](Cc2ccccc2)NC(=O)[C@@H](C(C)C)NC(=O)[C@@H]([C@@H](C)CC)NC(=O)[C@H](NC(=O)[C@H](NC(=O)[C@H](CCCN=C(N(C)C)N2CCCC2)NC(=O)[C@H]2CCCN2C(=O)[C@H](NC(=O)[C@@H](NC(=O)[C@@H](NC(=O)[C@H](NC(=O)CCCC(C)C)C(C)C)[C@@H](C)O)C(C)C)C(C)C)[C@@H](C)CC)[C@@H](C)OC(=O)[C@H](C(C)C)NC1=O` [Compound 91, [N(CH2)4,N′(Me)2-Arg^8]-Kahalalide F] ({Hexanoyl(5-Me)}-[dV]TV[dV][dP][X2][d(aIle)][d(aThr)][d(aIle)][dV]F[Dhb]V; ester 8-C): in data set [1] (SRB), the “TGI A-549” value is 4.37E−07 Molar, the GI50 was 312 nM and the CC50 is 624 nM. Besides, in data set [2] (SRB), the “TGI HT-29” value stood at 3.12E−07 Molar, the concentration for 50% growth inhibition (GI50) turned out to be 62.4 nM and the CC50 amounted to 562 nM.

Consider `C/C=C1\NC(=O)[C@H](Cc2ccccc2)NC(=O)[C@@H](C(C)C)NC(=O)[C@@H]([C@@H](C)CC)NC(=O)[C@H](NC(=O)[C@H](NC(=O)[C@H](CCCN)NC(=O)[C@H]2CCCN2C(=O)[C@H](NC(=O)[C@@H](NC(=O)[C@@H](NC(=O)[C@H](NC(=O)c2ccc3c(c2)OCO3)C(C)C)[C@@H](C)O)C(C)C)C(C)C)[C@@H](C)CC)[C@@H](C)OC(=O)[C@H](C(C)C)NC1=O` [Compound 23, [Pipe^14]-KF], for which, in data set [1], the “TGI A-549” value was 1.98E−06 Molar, the GI50 came to 661 nM and the CC50 turned out to be 4620 nM. Also, in data set [2], the “TGI HT-29” value stood at 3.30E−07 Molar, the GI50 turned out to be 132 nM and the CC50 worked out at 528 nM.

Take `C/C=C1\NC(=O)[C@H](Cc2ccccc2)NC(=O)[C@@H](C(C)C)NC(=O)[C@@H]([C@@H](C)CC)NC(=O)[C@H](NC(=O)[C@H](NC(=O)[C@H](CCCN=C(N(C)C)N(C)C)NC(=O)[C@H]2CCCN2C(=O)[C@H](NC(=O)[C@@H](NC(=O)[C@@H](NC(=O)[C@H](NC(=O)CCCC(C)C)C(C)C)[C@@H](C)O)C(C)C)C(C)C)[C@@H](C)CC)[C@@H](C)OC(=O)[C@H](C(C)C)NC1=O` [Compound 89, [N(Me)2,N′(Me)2-Arg^8]-Kahalalide F] ({Hexanoyl(5-Me)}-[dV]TV[dV][dP][X1][d(aIle)][d(aThr)][d(aIle)][dV]F[Dhb]V; ester 8-C): in data set [1] (SRB), the “TGI A-549” value was 4.44E−07 Molar, the GI50 amounted to 317 nM and the CC50 is 635 nM. Further, in data set [2] (SRB), the “TGI HT-29” value worked out at 3.17E−07 Molar, the GI50 is 63.5 nM and the CC50 worked out at 571 nM.

As for `C/C=C1\NC(=O)[C@H](Cc2ccccc2)NC(=O)[C@@H](C(C)C)NC(=O)[C@@H]([C@@H](C)CC)NC(=O)[C@H](NC(=O)[C@H](NC(=O)[C@H](CCCN=C(N(C)C)N(C)c2ccccc2)NC(=O)[C@H]2CCCN2C(=O)[C@H](NC(=O)[C@@H](NC(=O)[C@@H](NC(=O)[C@H](NC(=O)CCCC(C)C)C(C)C)[C@@H](C)O)C(C)C)C(C)C)[C@@H](C)CC)[C@@H](C)OC(=O)[C@H](C(C)C)NC1=O` [Compound 90, [N(Me,Ph),N′(ME)2-Arg^8]-Kahalalide F] ({Hexanoyl(5-Me)}-[dV]TV[dV][dP][X3][d(aIle)][d(aThr)][d(aIle)][dV]F[Dhb]V; ester 8-C), in data set [1] (SRB), the “TGI A-549” value was determined as 4.27E−07 Molar. The “TGI HT-29” value in data set [2] (SRB) stood at 3.05E−07 Molar.
